# Laboratory results reported in publication PMC7602804 (Nutrients, 2020).
# No end group written: not given here.
# System: pepsin, then trypsin, chymotrypsin and elastase
# Test: In vitro simulation of gastrointestinal digestion
# Assay type: in vitro ADME
# Settings: 37 °C
# Procedure: The purified milk peptides and the synthesized PIGSENSEKTTMPLW and […] peptides were subjected to digestion, essentially as described in [5, 26] with few modifications. The peptides were dissolved in 0.15 M of NaCl with a pH of 2.5 at a concentration of 1 mg/mL and incubated with pepsin from porcine gastric mucosa in a 1:100 w/w enzyme to substrate ratio for 60 min at 37 °C. Before digestion with pancreatic proteases, the sample was lyophilized and washed twice in deionized water. Trypsin and chymotrypsin from a bovine pancreas (Worthington Biochemical Corporation, NJ, USA) (1:100 w/w) and elastase (Worthington) (1:500 w/w) were added in 50 mM of ammonium bicarbonate buffer (pH = 7.6) and the mixture was incubated for 60 min at 37 °C. In digests of the synthesized peptides, aliquots were sampled and analyzed after 5 min, 30 min, 60 min and 270 min incubation with the intestinal enzymes. Bovine milk osteopontin was purified as previously described and incubated with the digestive proteases to validate their activity. The digested milk peptides were separated by RP-HPLC on an Aeris C4 widepore column (Phenomenex, Værløse, Denmark) connected to a Shimadzu (Kyoto, Japan) HPLC system. The peptides were separated in 0.1% TFA (buffer A) and eluted with a gradient of 60% acetonitrile in 0.1% TFA (buffer B) at 40 °C. The gradient was developed over 59 min (0–5 min: 0% buffer B; 5–49 min: 0–98% buffer B; 49–59 min: 98% buffer B) at a flow rate of 0.85 mL/min. The peptides were detected by measuring the absorbance at 226 nm and analyzed by matrix-assisted laser desorption ionization time-of-flight mass spectrometry (MALDI-MS).
# MALDI-MS was performed using a Bruker Autoflex III instrument (Bruker Daltonics, Bremen, Germany). The analysis was performed using a saturated solution of α-cyano-4-hydroxycinnamic acid. The instrument was operated in reflected positive ionization mode and calibrated in the mass range of 1000 to 3200 Da using a peptide calibration standard (Bruker Daltonics, Bremen, Germany). The theoretical peptide masses were calculated using the General Protein/Mass Analysis for Windows software (Lighthouse Data, Odense, Denmark).
sequence,measurement,setting,value
PIGSENSEKTTMPLW [PIGSENSEKTTMPLW],Stability of the synthetic peptide / control in simulated gastrointestinal digestion,"1 mg/mL, pepsin 1:100 w/w, 0.15 M NaCl pH 2.5, 60 min, chymotrypsin 1:100 and elastase 1:500 w/w, 50 mM ammonium bicarbonate pH 7.6, 37 °C, sampled 5, 30, 60 and 270 min, MALDI-MS (osteopontin: SDS-PAGE)",observed even after 270 min of digestion
same,Resistance to simulated gastrointestinal digestion within the purified milk peptide mix,"purified milk peptides 1 mg/mL, pepsin 1:100, pH 2.5, 60 min, chymotrypsin 1:100, elastase 1:500, pH 7.6, 60 min, RP-HPLC fractions, MALDI-MS, before and after digestion",observed
